Assay results taken from publication PMC8698454, “Anti-Colonization Effect of Au Surfaces with Self-Assembled Molecular Monolayers Functionalized with Antimicrobial Peptides on S. epidermidis” (Antibiotics, 2021).
Converted amounts (≈) assume the structure as drawn. Where two headings read alike, the source gives them in different places. Where a SMILES comes first, the peptide text is derived from it. [ ]: non-standard residue; d: D form. Lys(N3) = [N-]=[N+]=NCCCC[C@H](N)C(=O)O

Tests used:
[1] = test system: Gram-positive bacteria; format: cell-based, S. aureus and S. epidermidis
Procedure: (§1) The minimal inhibitory concentration (MIC) of peptides 1a, 1b, 2a, and 2b were determined by broth microdilution according to the Clinical Laboratory Standard Institute (CLSI) method […]-A9. The MICs of the peptides 1c, 1d, 2c, and 2d were determined by broth dilution according to the European Committee for Antimicrobial Susceptibility Testing (EUCAST). Final concentrations of 0.5-256 μg/mL were tested against a panel of reference bacteria-S. aureus (ATCC 9144), S. epidermidis (1457), E. coli (ATCC 25922), and P. aeruginosa (ATCC 27853). Each strain was tested in biological triplicate. The MIC values were defined as the lowest concentration of the peptides resulting in no visual growth.

[2] = test system: Staphylococcus epidermidis 1457; format: cell-based; settings: for MIC S. epidermidis 1457: Table S3
Procedure: as §1

[3] = test system: Escherichia coli ATCC 25922; format: cell-based; settings: for Antimicrobial Activity (MIC) E. coli: ATCC 25922; for MIC E. coli ATCC 25922: Table S3
Procedure: as §1

[4] = test system: Pseudomonas aeruginosa ATCC 27853; format: cell-based; settings: for Antimicrobial Activity (MIC) P. aeruginosa: ATCC 27853; for MIC P. aeruginosa ATCC 27853: Table S3
Procedure: as §1

[5] = test system: Staphylococcus aureus ATCC 9144; format: cell-based; settings: for Antimicrobial Activity (MIC) S. aureus: ATCC 9144; for MIC S. aureus ATCC 9144: Table S3
Procedure: as §1

[6] = technical replicate 1, biological replicate BR1
[7] = technical replicate 1, biological replicate BR2
[8] = technical replicate 1, biological replicate BR3
[9] = technical replicate 2, biological replicate BR1
[10] = technical replicate 2, biological replicate BR2
[11] = technical replicate 2, biological replicate BR3
[12] = technical replicate 3, biological replicate BR1
[13] = technical replicate 3, biological replicate BR2
[14] = technical replicate 3, biological replicate BR3
[15] = broth microdilution CLSI M07-A9 (1a,1b,2a,2b) or broth dilution EUCAST (1c,1d,2c,2d), 0.5-256 µg/mL tested, biological triplicate, no visual growth

[N-]=[N+]=NCCCC[C@@H]1NC(=O)[C@H](Cc2ccccc2)NC(=O)[C@H](CCCNC(=N)N)NC(=O)[C@H](Cc2c[nH]c3ccccc23)NC(=O)[C@H](Cc2c[nH]c3ccccc23)NC(=O)[C@H](CCCNC(=N)N)NC1=O [1d] (cyclo(RWWRF[Lys(N3)]))
MIC against Gram-positive bacteria [1]: 8 µg/mL (≈ 8.11 µM) | Antimicrobial Activity (MIC) S. epidermidis [2]; 1457: 8 µg/mL | MIC S. epidermidis 1457 [2, 6]: 8 µg/mL (≈ 8.11 µM) | MIC S. epidermidis 1457 [2, 7]: 8 µg/mL (≈ 8.11 µM) | MIC S. epidermidis 1457 [2, 8]: 16 µg/mL (≈ 16.2 µM) | MIC S. epidermidis 1457 [2, 9]: 8 µg/mL (≈ 8.11 µM) | MIC S. epidermidis 1457 [2, 10]: 8 µg/mL (≈ 8.11 µM) | MIC S. epidermidis 1457 [2, 11]: 16 µg/mL (≈ 16.2 µM) | MIC S. epidermidis 1457 [2, 12]: 8 µg/mL (≈ 8.11 µM) | MIC S. epidermidis 1457 [2, 13]: 8 µg/mL (≈ 8.11 µM) | MIC S. epidermidis 1457 [2, 14]: 16 µg/mL (≈ 16.2 µM) | Antimicrobial Activity (MIC) E. coli [3]: 64 µg/mL | MIC E. coli ATCC 25922 [3, 6]: 64 µg/mL (≈ 64.9 µM) | MIC E. coli ATCC 25922 [3, 7]: 64 µg/mL (≈ 64.9 µM) | MIC E. coli ATCC 25922 [3, 8]: 64 µg/mL (≈ 64.9 µM) | MIC E. coli ATCC 25922 [3, 9]: 64 µg/mL (≈ 64.9 µM) | MIC E. coli ATCC 25922 [3, 10]: 64 µg/mL (≈ 64.9 µM) | MIC E. coli ATCC 25922 [3, 11]: 64 µg/mL (≈ 64.9 µM) | MIC E. coli ATCC 25922 [3, 12]: 64 µg/mL (≈ 64.9 µM) | MIC E. coli ATCC 25922 [3, 13]: 64 µg/mL (≈ 64.9 µM) | MIC E. coli ATCC 25922 [3, 14]: 64 µg/mL (≈ 64.9 µM) | Antimicrobial Activity (MIC) P. aeruginosa [4]: 128 µg/mL | MIC P. aeruginosa ATCC 27853 [4, 6]: 128 µg/mL (≈ 130 µM) | MIC P. aeruginosa ATCC 27853 [4, 7]: 256 µg/mL (≈ 260 µM) | MIC P. aeruginosa ATCC 27853 [4, 8]: 128 µg/mL (≈ 130 µM) | MIC P. aeruginosa ATCC 27853 [4, 9]: 128 µg/mL (≈ 130 µM) | MIC P. aeruginosa ATCC 27853 [4, 10]: 256 µg/mL (≈ 260 µM) | MIC P. aeruginosa ATCC 27853 [4, 11]: 128 µg/mL (≈ 130 µM) | MIC P. aeruginosa ATCC 27853 [4, 12]: 128 µg/mL (≈ 130 µM) | MIC P. aeruginosa ATCC 27853 [4, 13]: 256 µg/mL (≈ 260 µM) | MIC P. aeruginosa ATCC 27853 [4, 14]: 128 µg/mL (≈ 130 µM) | Antimicrobial Activity (MIC) S. aureus [5]: 8 µg/mL | MIC S. aureus ATCC 9144 [5, 6]: 8 µg/mL (≈ 8.11 µM) | MIC S. aureus ATCC 9144 [5, 7]: 16 µg/mL (≈ 16.2 µM) | MIC S. aureus ATCC 9144 [5, 8]: 8 µg/mL (≈ 8.11 µM) | MIC S. aureus ATCC 9144 [5, 9]: 8 µg/mL (≈ 8.11 µM) | MIC S. aureus ATCC 9144 [5, 10]: 16 µg/mL (≈ 16.2 µM) | MIC S. aureus ATCC 9144 [5, 11]: 8 µg/mL (≈ 8.11 µM) | MIC S. aureus ATCC 9144 [5, 12]: 8 µg/mL (≈ 8.11 µM) | MIC S. aureus ATCC 9144 [5, 13]: 16 µg/mL (≈ 16.2 µM) | MIC S. aureus ATCC 9144 [5, 14]: 16 µg/mL (≈ 16.2 µM)

N3-PEG400-RWWRF [1b, azidopeptide N3-PEG400-RWWRF, PEG400-linked, amidated C-terminus]
MIC S. epidermidis 1457 [2, 6]: 128 µg/mL | MIC S. epidermidis 1457 [2, 7]: 128 µg/mL | MIC S. epidermidis 1457 [2, 8]: 64 µg/mL | MIC S. epidermidis 1457 [2, 9]: 128 µg/mL | MIC S. epidermidis 1457 [2, 10]: 128 µg/mL | MIC S. epidermidis 1457 [2, 11]: 128 µg/mL | MIC S. epidermidis 1457 [2, 12]: 128 µg/mL | MIC S. epidermidis 1457 [2, 13]: 128 µg/mL | MIC S. epidermidis 1457 [2, 14]: 64 µg/mL | Antimicrobial Activity (MIC) S. epidermidis ([2]; strain 1457, broth microdilution CLSI M07-A9 (1a,1b,2a,2b) or broth dilution EUCAST (1c,1d,2c,2d), 0.5-256 µg/mL tested, biological triplicate, no visual growth): 128 µg/mL | Antimicrobial Activity (MIC) E. coli [3, 15]: >256 µg/mL | MIC E. coli ATCC 25922 [3, 6]: > 256 µg/mL | MIC E. coli ATCC 25922 [3, 7]: > 256 µg/mL | MIC E. coli ATCC 25922 [3, 8]: > 256 µg/mL | MIC E. coli ATCC 25922 [3, 9]: > 256 µg/mL | MIC E. coli ATCC 25922 [3, 10]: > 256 µg/mL | MIC E. coli ATCC 25922 [3, 11]: > 256 µg/mL | MIC E. coli ATCC 25922 [3, 12]: > 256 µg/mL | MIC E. coli ATCC 25922 [3, 13]: > 256 µg/mL | MIC E. coli ATCC 25922 [3, 14]: > 256 µg/mL | Antimicrobial Activity (MIC) P. aeruginosa [4, 15]: >256 µg/mL | MIC P. aeruginosa ATCC 27853 [4, 6]: > 256 µg/mL | MIC P. aeruginosa ATCC 27853 [4, 7]: > 256 µg/mL | MIC P. aeruginosa ATCC 27853 [4, 8]: > 256 µg/mL | MIC P. aeruginosa ATCC 27853 [4, 9]: > 256 µg/mL | MIC P. aeruginosa ATCC 27853 [4, 10]: > 256 µg/mL | MIC P. aeruginosa ATCC 27853 [4, 11]: > 256 µg/mL | MIC P. aeruginosa ATCC 27853 [4, 12]: > 256 µg/mL | MIC P. aeruginosa ATCC 27853 [4, 13]: > 256 µg/mL | MIC P. aeruginosa ATCC 27853 [4, 14]: > 256 µg/mL | Antimicrobial Activity (MIC) S. aureus ([5]; broth microdilution CLSI M07-A9 (1a,1b,2a,2b) or broth dilution EUCAST (1c,1d,2c,2d), 0.5-256 µg/mL tested, biological triplicate, lowest concentration with no visual growth): 128 µg/mL | MIC S. aureus ATCC 9144 [5, 6]: 128 µg/mL | MIC S. aureus ATCC 9144 [5, 7]: 128 µg/mL | MIC S. aureus ATCC 9144 [5, 8]: 128 µg/mL | MIC S. aureus ATCC 9144 [5, 9]: 128 µg/mL | MIC S. aureus ATCC 9144 [5, 10]: 128 µg/mL | MIC S. aureus ATCC 9144 [5, 11]: 128 µg/mL | MIC S. aureus ATCC 9144 [5, 12]: 128 µg/mL | MIC S. aureus ATCC 9144 [5, 13]: 128 µg/mL | MIC S. aureus ATCC 9144 [5, 14]: 128 µg/mL
